# Target: human NaV 1.8 (Homo sapiens, UniProt Q9Y5Y9)
# Assay: E-VIPR Assay for Detecting and Measuring NaV Inhibition Properties
# Assay type: cell-based
# Conditions: HEK cells expressing a truncated form of human NaV 1.8; HS = human serum; read-out: EVIPR HS IC50
# Excerpt: E-VIPR Assay for Detecting and Measuring NaV Inhibition Properties
# Sodium ion channels are voltage-dependent proteins that can be activated by inducing membrane voltage changes by applying electric fields. The electrical stimulation instrument and methods of use, referred to as E-VIPR, are described in International Publication No. WO 2002/008748 A3 and C.-J. Huang et al. Characterization of voltage-gated sodium channel blockers by electrical stimulation and fluorescence detection of membrane potential, 24 Nature Biotech. 439-46 (2006), both of which are incorporated by reference in their entirety. The instrument comprises a microtiter plate handler, an optical system for exciting the coumarin dye while simultaneously recording the coumarin and oxonol emissions, a waveform generator, a current- or voltage-controlled amplifier, and parallel electrode pairs that are inserted into assay plate wells. Under integrated computer control, this instrument passes user-programmed electrical stimulus protocols to cells within the wells of the microtiter plate.
# 16-20 hours prior to running the assay on E-VIPR, HEK cells expressing a truncated form of human NaV 1.8 with full channel activity were seeded into microtiter 384-well plates, pre-coated with matrigel, at a density of 25,000 cells per well. 2.5-5% KIR2.1 Bacmam virus was added to the final cell suspension before seeding into cell plates. HEK cells were grown in Dulbecco's Modified Eagle's Medium (DMEM) supplemented with 10% FBS (Fetal Bovine Serum, qualified; Sigma #F4135), 1% NEAA (Non-Essential Amino Acids, Gibco #11140), 1% HEPES (Gibco #15630), 1% Pen-Strep (Penicillin-Streptomycin; Gibco #15140) and 5 μg/ml Blasticidin (Gibco #R210-01). Cells were expanded in vented cap cell culture flasks, with 90-95% humidity and 5% CO2.
# Reagents and Stock Solutions:
# • 100 mg/mL Pluronic F-127 (Sigma #P2443), in dry DMSO • Compound Plates: Corning 384-well Polypropylene Round Bottom #3656 • Cell Plates: 384-well tissue culture treated plates (Greiner #781091-1B) • 2.5-5% KIR 2.1 Bacmam virus (produced in-house), prepared as described in Section 3.3 of J. A. Fornwald et al., Gene Expression in Mammalian Cells Using BacMam, a Modified Baculovirus System, 1350 Methods in Molecular Biology 95-116 (2016), the entire contents of which are incorporated by reference. The concentration used can be dependent on viral titer of each batch. • 5 mM DiSBAC6 (3), a voltage sensitive oxonol acceptor (CAS number 169211-44-3; 5-[3-(1,3-dihexylhexahydro-4,6-dioxo-2-thioxo-5-pyrimidinyl)-2-propen-1-ylidene]-1,3-dihexyldihydro-2-thioxo-4,6(1H,5H)-pyrimidinedione), in dry DMSO. The preparation of DiSBAC6 (3) is analogous to that of DiSBAC4 (3) as described in Voltage Sensing by Fluorescence Resonance Energy Transfer in Single Cells, Gonzalez, J. E. and Tsien, R. Y. (1995) Biophys. J. 69, 1272-1280. • 5 mM CC2-DMPE, a commercially available membrane-bound coumarin phospholipid FRET donor (ThermoFisher Scientific catalog number K1017, CAS number 393782-57-5; tetradecanoic acid, 1,1′-[(1R)-1-[8-(6-chloro-7-hydroxy-2-oxo-2H-1-benzopyran-3-yl)-3-hydroxy-3-oxido-8-oxo-2,4-dioxa-7-aza-3-phosphaoct-1-yl]-1,2-ethanediyl] ester) was prepared in dry DMSO. […]
# human NaV 1.8, sequence (Q9Y5Y9 whole entry, looked up): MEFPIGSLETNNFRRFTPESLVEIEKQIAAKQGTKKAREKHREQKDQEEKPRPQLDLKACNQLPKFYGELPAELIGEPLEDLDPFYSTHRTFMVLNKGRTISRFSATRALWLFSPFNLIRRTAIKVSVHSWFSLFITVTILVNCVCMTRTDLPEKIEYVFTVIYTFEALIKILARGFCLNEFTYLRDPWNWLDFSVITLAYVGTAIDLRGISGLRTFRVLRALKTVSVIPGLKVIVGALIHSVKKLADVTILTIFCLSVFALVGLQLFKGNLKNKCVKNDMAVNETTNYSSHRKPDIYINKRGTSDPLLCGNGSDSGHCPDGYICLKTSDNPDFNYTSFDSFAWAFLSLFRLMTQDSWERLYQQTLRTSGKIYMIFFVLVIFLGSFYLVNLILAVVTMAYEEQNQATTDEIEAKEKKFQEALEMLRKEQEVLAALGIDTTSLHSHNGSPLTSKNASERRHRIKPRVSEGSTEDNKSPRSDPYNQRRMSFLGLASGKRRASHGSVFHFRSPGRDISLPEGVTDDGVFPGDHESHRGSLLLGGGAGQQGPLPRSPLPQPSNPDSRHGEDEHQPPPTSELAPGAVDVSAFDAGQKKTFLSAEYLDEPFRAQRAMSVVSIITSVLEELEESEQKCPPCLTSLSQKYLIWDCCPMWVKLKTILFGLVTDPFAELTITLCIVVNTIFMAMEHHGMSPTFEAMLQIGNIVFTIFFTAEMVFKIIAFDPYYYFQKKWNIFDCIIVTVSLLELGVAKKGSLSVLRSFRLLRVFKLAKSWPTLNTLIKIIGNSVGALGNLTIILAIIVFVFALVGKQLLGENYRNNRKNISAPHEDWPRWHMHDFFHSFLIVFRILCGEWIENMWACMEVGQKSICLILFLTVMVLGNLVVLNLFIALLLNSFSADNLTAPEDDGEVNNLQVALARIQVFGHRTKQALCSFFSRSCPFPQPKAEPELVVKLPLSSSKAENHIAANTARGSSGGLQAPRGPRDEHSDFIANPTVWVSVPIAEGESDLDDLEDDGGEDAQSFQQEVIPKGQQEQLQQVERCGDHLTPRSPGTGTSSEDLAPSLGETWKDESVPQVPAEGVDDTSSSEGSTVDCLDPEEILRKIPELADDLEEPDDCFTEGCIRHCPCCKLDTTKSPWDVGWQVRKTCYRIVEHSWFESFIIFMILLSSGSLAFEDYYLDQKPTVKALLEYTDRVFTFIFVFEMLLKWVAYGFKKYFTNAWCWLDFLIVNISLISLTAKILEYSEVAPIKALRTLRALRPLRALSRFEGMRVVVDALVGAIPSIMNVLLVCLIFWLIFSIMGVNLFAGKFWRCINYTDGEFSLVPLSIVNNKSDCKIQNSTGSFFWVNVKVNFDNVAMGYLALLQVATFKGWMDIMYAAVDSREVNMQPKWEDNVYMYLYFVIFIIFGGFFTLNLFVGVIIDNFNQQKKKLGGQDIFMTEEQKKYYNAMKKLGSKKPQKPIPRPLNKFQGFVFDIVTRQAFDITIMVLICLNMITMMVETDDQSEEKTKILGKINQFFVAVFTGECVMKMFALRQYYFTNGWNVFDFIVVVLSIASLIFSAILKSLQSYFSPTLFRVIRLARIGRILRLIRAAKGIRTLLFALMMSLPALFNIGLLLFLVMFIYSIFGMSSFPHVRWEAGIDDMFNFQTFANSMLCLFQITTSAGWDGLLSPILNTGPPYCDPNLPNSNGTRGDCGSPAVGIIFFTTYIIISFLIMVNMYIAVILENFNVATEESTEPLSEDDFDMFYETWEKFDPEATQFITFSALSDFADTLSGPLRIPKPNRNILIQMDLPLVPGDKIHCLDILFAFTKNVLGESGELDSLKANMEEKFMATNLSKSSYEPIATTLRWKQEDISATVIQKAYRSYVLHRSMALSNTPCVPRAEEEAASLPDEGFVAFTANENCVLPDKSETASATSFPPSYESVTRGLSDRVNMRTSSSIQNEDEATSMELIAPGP
row,Structure (SMILES),IC50
1,"COC(=O)c1nccc(NC(=O)c2c(Oc3ccc(OC(F)(F)F)cc3OC)ccc(C(F)(F)F)c2C)c1C [Compound 33, methyl 4-(6-(2-methoxy-4-(trifluoromethoxy)phenoxy)-2-methyl-3-(trifluoromethyl)benzamido)-3-methylpicolinate]",≥ 1000 nM
2,"COC(=O)c1cc(NC(=O)c2c(Oc3ccc(OC(F)(F)F)cc3OC)ccc(C3CC3)c2C)c(C)cn1 [Compound 2, methyl 4-[[3-cyclopropyl-6-[2-methoxy-4-(trifluoromethoxy)phenoxy]-2-methyl-benzoyl]amino]-5-methyl-pyridine-2-carboxylate]",100 to 500 nM
3,"COC(=O)c1nccc(NC(=O)c2c(Oc3ccc(F)c(F)c3C)ccc(C(F)(F)F)c2C)c1C [Compound 19, Methyl 4-[[6-(3,4-difluoro-2-methyl-phenoxy)-2-methyl-3-(trifluoromethyl)benzoyl]amino]-3-methyl-pyridine-2-carboxylate]",≥ 1000 nM
4,"COC(=O)c1cc(NC(=O)c2c(Oc3ccc(F)c(F)c3C)ccc(C(F)(F)F)c2C)c(C)cn1 [Compound 18, Methyl 4-[[6-(3,4-difluoro-2-methyl-phenoxy)-2-methyl-3-(trifluoromethyl)benzoyl]amino]-5-methyl-pyridine-2-carboxylate]",500 to 1000 nM
5,"COC(=O)c1cc(NC(=O)c2c(Oc3ccc(OC(F)(F)F)c(F)c3Cl)ccc(C(F)(F)F)c2F)c(C)cn1 [Compound 20, Methyl 4-[[6-[2-chloro-3-fluoro-4-(trifluoromethoxy)phenoxy]-2-fluoro-3-(trifluoromethyl)benzoyl]amino]-5-methyl-pyridine-2-carboxylate]",< 100 nM
6,"COC(=O)c1ccc(NC(=O)c2c(Oc3ccc(OC(F)(F)F)c(F)c3OC)ccc(C(F)(F)F)c2F)cn1 [Compound 14, Methyl 5-[[2-fluoro-6-[3-fluoro-2-methoxy-4-(trifluoromethoxy)phenoxy]-3-(trifluoromethyl)benzoyl]amino]pyridine-2-carboxylate]",100 to 500 nM

# Next, values leading:
row,IC50,Structure (SMILES)
1,≥ 1000 nM,"COC(=O)c1nccc(NC(=O)c2c(Oc3ccc(OC(F)(F)F)c(F)c3OC)ccc(C(F)(F)F)c2F)c1C [Compound 34, methyl 4-(2-fluoro-6-(3-fluoro-2-methoxy-4-(trifluoromethoxy)phenoxy)-3-(trifluoromethyl)benzamido)-3-methylpicolinate]"
2,≥ 1000 nM,"[2H]C([2H])([2H])Oc1cc(OC(F)(F)F)ccc1Oc1cc(C(F)(F)F)c(F)cc1C(=O)Nc1ccnc(NC(=O)OC(C)(C)C)c1 [Compound 7, tert-butyl N-[4-[[5-fluoro-2-[2-(trideuteriomethoxy)-4-(trifluoromethoxy)phenoxy]-4-(trifluoromethyl)benzoyl]amino]-2-pyridyl]carbamate]"
3,500 to 1000 nM,"COC(=O)c1ccnc(NC(=O)c2c(Oc3ccc(OC(F)(F)F)c(F)c3OC)ccc(C(F)(F)F)c2F)c1 [Compound 23, Methyl 2-[[2-fluoro-6-[3-fluoro-2-methoxy-4-(trifluoromethoxy)phenoxy]-3-(trifluoromethyl)benzoyl]amino]pyridine-4-carboxylate]"

# Source: patent publication US12440481B2, “Esters and carbamates as modulators of sodium channels” (VERTEX PHARMACEUTICALS INCORPORATED, priority 2019, dated 2025)
